Like-named read-outs stand apart in the source and are kept apart here.
Key:
[1] = test system: 3D7-MR4 trophozoite parasite-infected RBCs; assay: Metabolomic profiling (hydrophilic metabolite changes, UHPLC-MS); assay type: cell-based, Plasmodium falciparum
[2] = test system: asynchronous 3D7-A10 parasite cultures; assay: Standard 72-h exposure asexual blood stage susceptibility assay (IC50^72h); assay type: cell-based, Plasmodium falciparum; conditions: Plasmodium falciparum, 3D7, 72 h, read-out: Overall (72hr assay) Mean IC50 (IC50^72h)
[3] = test system: Plasmodium falciparum 3D7-A10 parasites; assay: Stage specificity assay (8-h exposure of synchronized stages, IC50^8h); assay type: cell-based; conditions: for IC50: Plasmodium falciparum

COc1cc(-c2nc(-c3ccccc3)c(-c3ccccc3)[nH]2)ccc1OCCN(C)C [MMV027496]
Log2(fold changes) 3-phosphoglycerate ([1]; metabolite 3-phosphoglycerate, log2 fold change): 0.0073
Log2(fold changes) 4-Pyridoxic acid ([1]; metabolite 4-Pyridoxic acid, log2 fold change): -0.0867
Log2(fold changes) 4-aminobutyrate ([1]; metabolite 4-aminobutyrate, log2 fold change): -0.1160
Log2(fold changes) 4-phosphopantetheine ([1]; metabolite 4-phosphopantetheine, log2 fold change): -1.1166
Log2(fold changes) 4-phosphopantothenate ([1]; metabolite 4-phosphopantothenate, log2 fold change): -0.2287
Log2(fold changes) 5-aminopentanoic acid ([1]; metabolite 5-aminopentanoic acid, log2 fold change): 0.0000
Log2(fold changes) 5-methyl-THF ([1]; metabolite 5-methyl-THF, log2 fold change): 0.0000
Log2(fold changes) 5-phosphoribosyl-1-pyrophosphate ([1]; metabolite 5-phosphoribosyl-1-pyrophosphate, log2 fold change): -0.7343
Log2(fold changes) 6-phospho-D-gluconate ([1]; metabolite 6-phospho-D-gluconate, log2 fold change): -0.1141
Log2(fold change) HVDD ([1]; metabolite HVDD): -2.1597
Log2(fold change) Hydroxyisocaproic acid ([1]; metabolite Hydroxyisocaproic acid): 0.0000
Log2(fold change) IDP ([1]; metabolite IDP): 0.0000
Log2(fold change) IMP ([1]; metabolite IMP): 0.0628
Log2(fold change) Inositol ([1]; metabolite Inositol): 0.0000
Log2(fold change) Isopentyl-PP ([1]; metabolite Isopentyl-PP): 0.0000
Log2(fold change) L-arginino-succinate ([1]; metabolite L-arginino-succinate): 0.8581
Log2(fold change) LD ([1]; metabolite LD): -0.0397
Log2(fold change) Myristoyl/tetradecanoyl-CoA ([1]; metabolite Myristoyl/tetradecanoyl-CoA): 0.0000
Log2(fold change) N-Acetyl-L-alanine ([1]; metabolite N-Acetyl-L-alanine): 0.1987
Log2(fold change) N-acetyl-L-ornithine ([1]; metabolite N-acetyl-L-ornithine): 0.0000
Log2(fold change) N-acetyl-glucosamine-1/6-phosphate ([1]; metabolite N-acetyl-glucosamine-1/6-phosphate): -0.0707
Log2(fold change) N-acetyl-glutamate ([1]; metabolite N-acetyl-glutamate): -0.1403
Log2(fold change) N-acetyl-glutamine ([1]; metabolite N-acetyl-glutamine): -1.0773
Log2(fold change) N-carbamoyl-L-aspartate ([1]; metabolite N-carbamoyl-L-aspartate): 0.5722
Log2(fold change) NAD+ ([1]; metabolite NAD+): -0.1059
Log2(fold change) NADH ([1]; metabolite NADH): 2.0630
Log2(fold change) NADP+ ([1]; metabolite NADP+): -0.2030
Log2(fold change) NADPH ([1]; metabolite NADPH): 1.8886
Log2(fold change) O-acetyl-L-serine ([1]; metabolite O-acetyl-L-serine): 0.0000
Log2(fold change) Octoluse 8/1P ([1]; metabolite Octoluse 8/1P): 0.3428
Log2(fold change) Octoluse Bisphosphate ([1]; metabolite Octoluse Bisphosphate): 0.2244
Log2(fold change) PD ([1]; metabolite PD): -1.0804
Log2(fold change) PE ([1]; metabolite PE): -1.1988
Log2(fold change) PEE ([1]; metabolite PEE): -0.8148
Log2(fold change) PEEK ([1]; metabolite PEEK): 0.0064
Log2(fold change) PVNF ([1]; metabolite PVNF): -2.2754
Log2(fold change) Pyroglutamic acid ([1]; metabolite Pyroglutamic acid): 0.2204
Log2(fold change) Pyrophosphate ([1]; metabolite Pyrophosphate): 0.0000
Log2(fold change) Ribose-5-phosphate ([1]; metabolite Ribose-5-phosphate): -0.4834
Log2(fold change) S-adenosyl-L-homocysteine ([1]; metabolite S-adenosyl-L-homocysteine): 0.0314
Log2(fold change) S-adenosyl-L-methioninamine ([1]; metabolite S-adenosyl-L-methioninamine): 0.0000
Log2(fold change) S-adenosyl-L-methionine ([1]; metabolite S-adenosyl-L-methionine): 0.0000
Log2(fold change) S-methyl-5'-thioadenosine ([1]; metabolite S-methyl-5'-thioadenosine): -0.0546
Log2(fold change) SD ([1]; metabolite SD): -0.8375
Log2(fold change) SDL ([1]; metabolite SDL): -2.4484
Log2(fold change) SID ([1]; metabolite SID): 0.0000
Log2(fold change) Sedoheptulose bisphosphate ([1]; metabolite Sedoheptulose bisphosphate): 0.5967
Log2(fold change) Thiamine pyrophosphate ([1]; metabolite Thiamine pyrophosphate): 0.1905
Log2(fold changes) UDP-D-glucose ([1]; metabolite UDP-D-glucose, log2 fold change): 0.0680
Log2(fold changes) UDP-D-glucuronate ([1]; metabolite UDP-D-glucuronate, log2 fold change): -0.0322
Log2(fold changes) UDP-N-acetyl-glucosamine ([1]; metabolite UDP-N-acetyl-glucosamine, log2 fold change): -0.0747
Log2(fold changes) UDP ([1]; metabolite UDP, log2 fold change): -0.5781
Log2(fold changes) UMP ([1]; metabolite UMP, log2 fold change): 0.0423
Log2(fold changes) UTP ([1]; metabolite UTP, log2 fold change): -0.1765
Log2(fold change) hydroxyphenylpyruvate ([1]; metabolite hydroxyphenylpyruvate): 0.0000
Log2(fold change) hydroxyproline/Aminolevulinate ([1]; metabolite hydroxyproline/Aminolevulinate): -0.0266
Log2(fold change) hypoxanthine ([1]; metabolite hypoxanthine): 0.1428
Log2(fold change) indole ([1]; metabolite indole): 0.0089
Log2(fold change) inosine ([1]; metabolite inosine): -0.2181
Log2(fold change) isoleucine ([1]; metabolite isoleucine): 0.0175
Log2(fold change) lactate ([1]; metabolite lactate): -0.1982
Log2(fold change) leucine ([1]; metabolite leucine): -0.1115
Log2(fold change) lysine ([1]; metabolite lysine): 0.0000
Log2(fold change) malate ([1]; metabolite malate): -0.3708
Log2(fold change) maleic acid ([1]; metabolite maleic acid): -0.2294
Log2(fold change) methionine ([1]; metabolite methionine): 0.2631
Log2(fold change) myo-inositol ([1]; metabolite myo-inositol): 0.0000
Log2(fold change) nicotinamide mononucleotide ([1]; metabolite nicotinamide mononucleotide): 0.0000
Log2(fold change) nicotinate ([1]; metabolite nicotinate): 0.0117
Log2(fold change) ornithine ([1]; metabolite ornithine): 0.0000
Log2(fold change) orotate ([1]; metabolite orotate): 1.3653
Log2(fold change) orotidine-5'-phosphate ([1]; metabolite orotidine-5'-phosphate): 0.1863
Log2(fold change) oxaloacetate ([1]; metabolite oxaloacetate): 0.0000
Log2(fold change) p-aminobenzoate ([1]; metabolite p-aminobenzoate): 0.0000
Log2(fold change) p-hydroxybenzoate ([1]; metabolite p-hydroxybenzoate): 0.0000
Log2(fold change) pantothenate ([1]; metabolite pantothenate): 0.0065
Log2(fold change) phenylalanine ([1]; metabolite phenylalanine): -0.1381
Log2(fold change) phenylpyruvate ([1]; metabolite phenylpyruvate): 0.0000
Log2(fold change) phosphoenolpyruvate ([1]; metabolite phosphoenolpyruvate): -0.0480
Log2(fold change) prephenate ([1]; metabolite prephenate): 0.0000
Log2(fold change) proline ([1]; metabolite proline): -0.1946
Log2(fold change) pyridoxine ([1]; metabolite pyridoxine): 0.0000
Log2(fold change) pyruvate ([1]; metabolite pyruvate): -0.1903
Log2(fold change) riboflavin ([1]; metabolite riboflavin): -0.1484
Log2(fold change) ribose ([1]; metabolite ribose): 0.0000
Log2(fold change) ribose-phosphate ([1]; metabolite ribose-phosphate): 0.0000
Log2(fold change) ribulose-5-phosphate ([1]; metabolite ribulose-5-phosphate): -0.2217
Log2(fold change) serine ([1]; metabolite serine): 0.1164
Log2(fold change) sn-glycerol-3-phosphate ([1]; metabolite sn-glycerol-3-phosphate): 0.2423
Log2(fold change) succinate/Methylmalonic acid ([1]; metabolite succinate/Methylmalonic acid): 0.0338
Log2(fold change) succinyl-CoA/methylmalonyl-CoA ([1]; metabolite succinyl-CoA/methylmalonyl-CoA): 0.0865
Log2(fold change) taurine ([1]; metabolite taurine): 0.0000
Log2(fold change) thiamine ([1]; metabolite thiamine): 0.0000
Log2(fold change) threonine/homoserine ([1]; metabolite threonine/homoserine): -0.2212
Log2(fold change) thymidine ([1]; metabolite thymidine): 0.0000
Log2(fold changes) thymine ([1]; metabolite thymine, log2 fold change): 0.0000
Log2(fold changes) trehalose-6-Phosphate ([1]; metabolite trehalose-6-Phosphate, log2 fold change): 0.0000
Log2(fold changes) tryptophan ([1]; metabolite tryptophan, log2 fold change): -0.0286
Log2(fold changes) tyrosine ([1]; metabolite tyrosine, log2 fold change): 0.0383
Log2(fold changes) uridine ([1]; metabolite uridine, log2 fold change): 0.0000
IC50 [2]: 89.7 nM
Ratio lowest IC50 8hr/IC50 72hr ([3]; 3D7-A10): 1.9
IC50 ([3]; 3D7, read-out: Early rings Mean IC50 (IC50^8h), 8-h exposure 0–8 hr, 3D7-A10, survival at 60 h): 2760 nM
IC50 ([3]; 3D7, read-out: Early trophozoites Mean IC50 (IC50^8h), 8-h exposure 16–24 hr, 3D7-A10, survival at 60 h): 168 nM
IC50 ([3]; 3D7, read-out: Late rings Mean IC50 (IC50^8h), 8-h exposure 8–16 hr, 3D7-A10, survival at 60 h): 878 nM
IC50 ([3]; 3D7, read-out: Late trophozoites Mean IC50 (IC50^8h), 8-h exposure 24–32 hr, 3D7-A10, survival at 60 h): 199 nM
IC50 ([3]; 3D7, read-out: Schizonts Mean IC50 (IC50^8h), 8-h exposure 32–40 hr, 3D7-A10, survival at 60 h): 4340 nM
Stage of peak activity (Figure 6) ([3]; period when the parasite was most susceptible (lowest IC50^8h)): trophozoites
Peak Activity (Table S1) ([3]; stage(s) with the lowest IC50^8h): Trophs

— article PMC7031696 (Cell chemical biology, 2019)
